Experiments:
[1] = tested on: stationary phase B. burgdorferi persisters (strain B31); test: NCI compound library rescreen, epifluorescence microscope counting; details: Borreliella burgdorferi, 168 h
[2] = tested on: stationary phase B. burgdorferi persisters (strain B31); test: SYBR Green I/PI viability assay (plate reader), FDA-approved drug library screen
[3] = tested on: stationary phase B. burgdorferi persisters (strain B31); test: epifluorescence microscope counting after SYBR Green I/PI staining, FDA drug screen; details: Borreliella burgdorferi, 168 h, read-out: Residual viable cells (epifluorescence microscope counting)
[4] = 50 μM, 7 days, stationary phase

## C[C@H]1c2cccc(O)c2C(=O)C2=C(O)[C@]3(O)C(=O)C(C(N)=O)=C(O)[C@@H](N(C)C)[C@@H]3[C@@H](O)[C@@H]21 [Doxycycline]
[1]; read-out: Activity against persisters (residual viable cell percentage)
  viability at 50 µM: 77%
[1]; read-out: Residual viable cells (%) 20 μM (epifluorescence microscope counting)
  viability at 20 µM: 77%
[1]; read-out: Residual viable cells (%) 50 μM (epifluorescence microscope counting)
  viability at 50 µM: 77%
[1]; read-out: Residual viable cells (epifluorescence microscope counting)
  viability at 50 µM: 77%
[2]; [4]
  Ratio of Green/Red fluorescence, Primary screening: 7.62
  Ratio of Green/Red fluorescence, Rescreening (first column): 7.35
  Ratio of Green/Red fluorescence, Rescreening (second column): 7.58
[2]; Borreliella burgdorferi, 168 h, read-out: Residual viable cells (regression equation, SYBR Green I/PI assay)
  viability at 50 µM: 67%
[3]
  viability at 50 µM: 75%

— patent publication US20170058314A1, “NOVEL METHODOLOGY FOR IDENTIFYING ANTI-PERSISTER ACTIVITY AND ANTIMICROBIAL SUSCEPTIBILITY FOR BORRELIA BURGDORFERI AND OTHER BACTERIA” (priority 2014, published 2017)
